Data reported in EP0682022B1, “Condensation products of melamine, benzotriazoles and aldehydes” (Ciba Specialty Chemicals Holding Inc., priority 1994, dated 1995).
Values after ≈ are worked out from the molar mass of the structure shown.

Test: Solubility in water
Assay type: physicochemical
Details: at room temperature, read-out: Löslichkeit in Wasser

- solubility: 50 mg/mL (≈ 99.7 mM)
Structure (SMILES): O=C(O)C(Nc1nc(NC(C(=O)O)n2cncn2)nc(NC(C(=O)O)n2cncn2)n1)n1cncn1 (stereo not shown) [Beispiel 25]
